Results reported in patent publication US5939403A, “Keratan sulfate oligosaccharide fraction and pharmaceutical containing the same” (Seikagaku Corporation, priority 1994, dated 1999).
Counter-ions that a name gives are not always drawn.

How the values were obtained:
[1] = test system: foot edema reversed passive Arthus reaction; assay: Foot edema reversed passive Arthus reaction; type: in vivo, Male Crj:SD rats
Experimental: The effect of the keratan sulfate oligosaccharide was examined on the foot edema reversed passive Arthus reaction of rats, which is a type III allergic inflammation model. That is, the rabbit antiovalbumin serum was subcutaneously administered to the planta of the rats which were previously subjected to the administration of the test substances, furthermore ovalbumin was administered by injection into the caudal vein thereof to induce inflammation (edema), and the inhibitory effect on edema of the test substances was examined.
Male Crj:SD rats of five weeks old were subjected to a fast of about 17 hours after a week period of quarantine, and, before inducing inflammation, subjected to the administration of the purified keratan sulfate tetrasaccharide (I) which was prepared in Example 1, indomethacin (Sigma; Lot No. 19F0018), or dexamethasone (Banyu Pharmaceutical); Decadron injection; Lot No. 8D307P) as the test substances, or saline (Otsuka Pharmaceutical; Lot No. K3H72) as the negative control. The keratan sulfate tetrasaccharide (I) and dexamethasone were dissolved in saline, respectively, and the indomethacin was dissolved in 0.5% sodium carboxymethylcellulose (CMC-Na; Wako Pure Chemical Industries; Lot No. PTN1418) in use. The volume of dose was 0.5 ml per 100 g weight in each test. Concerning the route of administration, the keratan sulfate tetrasaccharide (I), saline, and dexamethasone were administered from the caudal vein, and the indomethacin was orally administered. And the substances except for indomethacin were administered by the blind method.
The dose and administration schedule of each test substance were as follows. Each group consisted of five animals.
The rabbit antiovalbumin serum was subcutaneously administered to each of the rats described above on the planta thereof, and ovalbumin was further administered by injection into the caudal vein to induce inflammation foot edema. The antiserum used was prepared as follows. That is, to the regions of back of rabbits, 1 ml of the equivalently mixed solution (emulsion) of the saline containing 2% ovalbumin (10 mg per one animal, Egg Albumin 5×Cryst, Lot No. P93601; Seikagaku Corporation) and the Freund's complete adjuvant (FCA) was intradermally injected once a week three times totally to subject themselves to sensitization. About 34 days after the last sensitization, the blood was drawn to obtain the antiserum. The antibody titer of the antiserum obtained was determined by the double layer method. Namely, the determination was performed using the white precipitation reaction of the antiserum diluted with saline and the saline containing 0.1% ovalbumin (1 mg/ml) as the indicator. As a result, the antibody titer of the antiserum obtained was x2^7.
After the period which is designed for each group, each 0.1 ml of the sixfold diluted antiserum was subcutaneously administered to the planta of left rear foot of the rats which were subjected to the administration of each test substance. Then, the saline containing 0.5% ovalbumin (25 mg/5 ml/kg) was administered into the caudal vein to induce inflammation. The volume of the treated feet in each group was determined before inducing inflammation, and one, two, three and four hours after inducing inflammation by a foot volume determining device (TK-101, Unicom) to yield the foot edematization rate from the difference from the value before the induction, and the edematization inhibitory rate of the test substance administered group to the control group was calculated. In each edematization rate obtained, the difference between the averages was tested by the minimum significant difference test. The foot edematization rate and the edematization inhibitory rate of each administered group are shown in Table 9, and the foot edematization rate of the administered groups which was subjected to the administration of the agent at five minutes and at three hours before inducing inflammation are shown in FIG. 6 and FIG. 7, respectively. […]

MRL-lpr/lpr mice = assay: Repeated intramuscular administration for four weeks in MRL mice (spleen and mesenteric lymph node weight); type: in vivo
Experimental: The effect of the keratan sulfate oligosaccharide was examined on MRL mice which are autoimmune disease model mice.
The PBS solution of the purified keratan sulfate tetrasaccharide (I) (100 mg/ml) which was prepared in Example 1 described above at a dose of 10 mg/kg weight (hereinafter referred to as the administered group), and PBS as the control was intramuscularly injected, respectively, to the femoral region of MRL-lpr/lpr mice five times a week for four weeks. After that, the mice were subjected to anatomization, and the weight of spleens and mesenteric lymph nodes were determined to obtain the average weight. In the table, "n" represents the number of mice used.

CC(=O)N[C@H]1[C@H](O[C@H]2[C@@H](O)[C@@H](COS(=O)(=O)O)O[C@@H](O[C@H]3[C@H](O)[C@@H](NC(C)=O)C(O)O[C@@H]3COS(=O)(=O)O)[C@@H]2O)O[C@H](COS(=O)(=O)O)[C@@H](O[C@@H]2O[C@H](COS(=O)(=O)O)[C@H](O)[C@H](O)[C@H]2O)[C@@H]1O (stereo partly drawn) [keratan sulfate tetrasaccharide (I), Gal(6S)β1-4GlcNAc(6S)β1-3Gal(6S)β1-4GlcNAc(6S)]
Inhibitory Rate ([1]; 1 Hour Later, 1 mg/kg i.v. at 5 minutes before inducing edema): 28.7% | Edematization Rate ([1]; 1 Hour Later, 1 mg/kg i.v. at 5 minutes before inducing edema, P < 0.01, control 40.9): 29.2 ± 1.3% | Inhibitory Rate ([1]; 1 Hour Later, 1 mg/kg i.v. at 3 hours before inducing edema): 13.4% | Edematization Rate ([1]; 1 Hour Later, 1 mg/kg i.v. at 3 hours before inducing edema, control 40.9): 35.4 ± 1.6% | Inhibitory Rate ([1]; 1 Hour Later, 3 mg/kg i.v. at 5 minutes before inducing edema): 15.8% | Edematization Rate ([1]; 1 Hour Later, 3 mg/kg i.v. at 5 minutes before inducing edema, control 40.9): 34.4 ± 5.2% | Inhibitory Rate ([1]; 1 Hour Later, 3 mg/kg i.v. at 3 hours before inducing edema): 10.6% | Edematization Rate ([1]; 1 Hour Later, 3 mg/kg i.v. at 3 hours before inducing edema, control 40.9): 36.5 ± 3.5% | Inhibitory Rate ([1]; 1 Hour Later, 10 mg/kg i.v. at 5 minutes before inducing edema): 28.9% | Edematization Rate ([1]; 1 Hour Later, 10 mg/kg i.v. at 5 minutes before inducing edema, P < 0.01, control 40.9): 29.1 ± 3.7% | Inhibitory Rate ([1]; 1 Hour Later, 10 mg/kg i.v. at 3 hours before inducing edema): -8.1% | Edematization Rate ([1]; 1 Hour Later, 10 mg/kg i.v. at 3 hours before inducing edema, control 40.9): 44.2 ± 3.4% | Inhibitory Rate ([1]; 2 Hours Later, 1 mg/kg i.v. at 5 minutes before inducing edema): 36.5% | Edematization Rate ([1]; 2 Hours Later, 1 mg/kg i.v. at 5 minutes before inducing edema, P < 0.01, control 46.3): 29.4 ± 2.9% | Inhibitory Rate ([1]; 2 Hours Later, 1 mg/kg i.v. at 3 hours before inducing edema): 8.4% | Edematization Rate ([1]; 2 Hours Later, 1 mg/kg i.v. at 3 hours before inducing edema, control 46.3): 42.4 ± 3.6% | Inhibitory Rate ([1]; 2 Hours Later, 3 mg/kg i.v. at 5 minutes before inducing edema): 8.6% | Edematization Rate ([1]; 2 Hours Later, 3 mg/kg i.v. at 5 minutes before inducing edema, control 46.3): 42.3 ± 4.2% | Inhibitory Rate ([1]; 2 Hours Later, 3 mg/kg i.v. at 3 hours before inducing edema): 23.9% | Edematization Rate ([1]; 2 Hours Later, 3 mg/kg i.v. at 3 hours before inducing edema, P < 0.01, control 46.3, 3 mg/kg): 35.3% | Edematization Rate ([1]; 2 Hours Later, 3 mg/kg i.v. at 3 hours before inducing edema, P < 0.01, control 46.3, listed as Keratan Sulfate Tetrasaccharide (I), 3 mg/kg): 35.3 ± 2.3% | Inhibitory Rate ([1]; 2 Hours Later, 10 mg/kg i.v. at 5 minutes before inducing edema): 9.1% | Edematization Rate ([1]; 2 Hours Later, 10 mg/kg i.v. at 5 minutes before inducing edema, control 46.3): 42.1 ± 2.9% | Inhibitory Rate ([1]; 2 Hours Later, 10 mg/kg i.v. at 3 hours before inducing edema): 0.4% | Edematization Rate ([1]; 2 Hours Later, 10 mg/kg i.v. at 3 hours before inducing edema, control 46.3): 46.1 ± 2.6% | Inhibitory Rate ([1]; 3 Hours Later, 1 mg/kg i.v. at 5 minutes before inducing edema): 17.0% | Edematization Rate ([1]; 3 Hours Later, 1 mg/kg i.v. at 5 minutes before inducing edema, P < 0.01, control 51.2): 42.3 ± 3.6% | Inhibitory Rate ([1]; 3 Hours Later, 1 mg/kg i.v. at 3 hours before inducing edema): 8.4% | Edematization Rate ([1]; 3 Hours Later, 1 mg/kg i.v. at 3 hours before inducing edema, control 51.2): 46.7 ± 2.6% | Inhibitory Rate ([1]; 3 Hours Later, 3 mg/kg i.v. at 5 minutes before inducing edema): 9.5% | Edematization Rate ([1]; 3 Hours Later, 3 mg/kg i.v. at 5 minutes before inducing edema, control 51.2): 46.1 ± 2.2% | Inhibitory Rate ([1]; 3 Hours Later, 3 mg/kg i.v. at 3 hours before inducing edema): 21.5% | Edematization Rate ([1]; 3 Hours Later, 3 mg/kg i.v. at 3 hours before inducing edema, P < 0.01, control 51.2): 40.1 ± 2.8% | Inhibitory Rate ([1]; 3 Hours Later, 10 mg/kg i.v. at 5 minutes before inducing edema): 12.3% | Edematization Rate ([1]; 3 Hours Later, 10 mg/kg i.v. at 5 minutes before inducing edema, control 51.2): 44.8 ± 5.1% | Inhibitory Rate ([1]; 3 Hours Later, 10 mg/kg i.v. at 3 hours before inducing edema): 18.7% | Edematization Rate ([1]; 3 Hours Later, 10 mg/kg i.v. at 3 hours before inducing edema, P < 0.01, control 51.2, 10 mg/kg): 41.5% | Edematization Rate ([1]; 3 Hours Later, 10 mg/kg i.v. at 3 hours before inducing edema, P < 0.01, control 51.2, listed as Keratan Sulfate Tetrasaccharide (I), 10 mg/kg): 41.5 ± 1.8% | Inhibitory Rate ([1]; 4 Hours Later, 1 mg/kg i.v. at 5 minutes before inducing edema): 11.3% | Edematization Rate ([1]; 4 Hours Later, 1 mg/kg i.v. at 5 minutes before inducing edema, control 44.9): 39.8 ± 3.0% | Inhibitory Rate ([1]; 4 Hours Later, 1 mg/kg i.v. at 3 hours before inducing edema): 15.5% | Edematization Rate ([1]; 4 Hours Later, 1 mg/kg i.v. at 3 hours before inducing edema, P < 0.05, control 44.9, 1 mg/kg): 38% | Edematization Rate ([1]; 4 Hours Later, 1 mg/kg i.v. at 3 hours before inducing edema, P < 0.05, control 44.9, listed as Keratan Sulfate Tetrasaccharide (I), 1 mg/kg): 38.0 ± 3.5% | Inhibitory Rate ([1]; 4 Hours Later, 3 mg/kg i.v. at 5 minutes before inducing edema): 17.1% | Edematization Rate ([1]; 4 Hours Later, 3 mg/kg i.v. at 5 minutes before inducing edema, P < 0.05, control 44.9, 3 mg/kg): 37.2% | Edematization Rate ([1]; 4 Hours Later, 3 mg/kg i.v. at 5 minutes before inducing edema, P < 0.05, control 44.9, listed as Keratan Sulfate Tetrasaccharide (I), 3 mg/kg): 37.2 ± 3.1% | Inhibitory Rate ([1]; 4 Hours Later, 3 mg/kg i.v. at 3 hours before inducing edema): 24.4% | Edematization Rate ([1]; 4 Hours Later, 3 mg/kg i.v. at 3 hours before inducing edema, P < 0.01, control 44.9): 33.9% | Inhibitory Rate ([1]; 4 Hours Later, 10 mg/kg i.v. at 5 minutes before inducing edema): 21.2% | Edematization Rate ([1]; 4 Hours Later, 10 mg/kg i.v. at 5 minutes before inducing edema, P < 0.01, control 44.9): 35.4% | Inhibitory Rate ([1]; 4 Hours Later, 10 mg/kg i.v. at 3 hours before inducing edema): 23.2% | Edematization Rate ([1]; 4 Hours Later, 10 mg/kg i.v. at 3 hours before inducing edema, P < 0.01, control 44.9): 34.5% | foot edematization rate, significance (result in words) ([1]; after an hour, administration at five minutes before inducing inflammation): the significant difference was observed in the 1 mg/kg administered group and the 10 mg/kg administered group | foot edematization rate, significance (result in words) ([1]; an hour after inducing inflammation, administration at three hours before): significant difference was not observed an hour after inducing inflammation | weight increase in spleens and mesenteric lymph nodes (result in words) (MRL-lpr/lpr mice; 10 mg/kg i.m.): a suppressive tendency for the weight increase in spleens and mesenteric lymph nodes was observed | Spleen Weight (MRL-lpr/lpr mice; 10 mg/kg i.m. five times a week, n = 9, mean ± standard error, control 1013 ± 233): 704 ± 148 mg | Mesenteric Lymph Node Weight (MRL-lpr/lpr mice; 10 mg/kg i.m. five times a week, n = 9, mean ± standard error, control 1563 ± 352): 1338 ± 311 mg
